Source: patent US9981988B2, “Polymorphic forms and co-crystals of a c-Met inhibitor” (AMGEN, INC., priority 2014, dated 2018)

Test: Solid state stability under accelerated stability testing conditions, HPLC
Format: physicochemical
Procedure: High performance liquid chromatography (HPLC) analyses were performed on an Agilent 1100 or 1200 series HPLC equipped with a binary pump, diode-array detector, thermostated column compartment, and auto sampler. Separation and elution was achieved using a reverse-phase column and 0.1% triflouroacetic acid/water/acetonitrile mobile phase.
Solid samples of the free base monohydrate form of Compound M were placed under accelerated stability testing conditions (25° C./60% RH, 40° C./75% RH and 60° C./ambient RH) for 12 weeks.

Compound: COCCOc1cnc2ccn([C@H](C)c3nnc4c(F)cc(-c5cnn(C)c5)cn34)c(=O)c2c1 [free base monohydrate form of Compound M, 6-{(1R)-1-[8-fluoro-6-(1-methyl-1H-pyrazol-4-yl)[1,2,4]triazolo[4,3-a]pyridin-3-yl]ethyl}-3-(2-methoxyethoxy)-1,6-naphthyridin-5(6H)-one]
- Area % (215 nm), peak 3, RRT 1.25 (Week 2, 25/60): 0.28 Area %
- Area % (215 nm), peak 4, RRT 1.53 (Week 2, 25/60): 0.28 Area %
- Area % (215 nm), peak monohydrate, RRT 1.00 (Week 2, 25/60): 99.18 Area %
- Total Impurities, Area % (215 nm) (Week 2, 25/60): 0.82 Area %
- Area % (215 nm), peak 2, RRT 1.09 (Week 2, 40/75): 0.31 Area %
- Area % (215 nm), peak 3, RRT 1.25 (Week 2, 40/75): 0.35 Area %
- Area % (215 nm), peak 4, RRT 1.53 (Week 2, 40/75): <0.1 Area %
- Area % (215 nm), peak monohydrate, RRT 1.00 (Week 2, 40/75): 99.35 Area %
- Total Impurities, Area % (215 nm) (Week 2, 40/75): 0.65 Area %
- Area % (215 nm), peak 2, RRT 1.09 (Week 2, 60 C.): 0.25 Area %
- Area % (215 nm), peak 3, RRT 1.25 (Week 2, 60 C.): 0.27 Area %
- Area % (215 nm), peak 4, RRT 1.53 (Week 2, 60 C.): 0.27 Area %
- Area % (215 nm), peak monohydrate, RRT 1.00 (Week 2, 60 C.): 99.21 Area %
- Total Impurities, Area % (215 nm) (Week 2, 60 C.): 0.79 Area %
- Area % (215 nm), peak 2, RRT 1.09 (Week 4, 25/60): <0.1 Area %
- Area % (215 nm), peak 3, RRT 1.25 (Week 4, 25/60): <0.1 Area %
- Area % (215 nm), peak 4, RRT 1.53 (Week 4, 25/60): <0.1 Area %
- Area % (215 nm), peak monohydrate, RRT 1.00 (Week 4, 25/60): 99.90 Area %
- Total Impurities, Area % (215 nm) (Week 4, 25/60): 0.01 Area %
- Area % (215 nm), peak 2, RRT 1.09 (Week 4, 40/75): <0.1 Area %
- Area % (215 nm), peak 3, RRT 1.25 (Week 4, 40/75): <0.1 Area %
- Area % (215 nm), peak 4, RRT 1.53 (Week 4, 40/75): <0.1 Area %
- Area % (215 nm), peak monohydrate, RRT 1.00 (Week 4, 40/75): 99.86 Area %
- Total Impurities, Area % (215 nm) (Week 4, 40/75): 0.14 Area %
- Area % (215 nm), peak 2, RRT 1.09 (Week 4, 60 C.): <0.1 Area %
- Area % (215 nm), peak 3, RRT 1.25 (Week 4, 60 C.): <0.1 Area %
- Area % (215 nm), peak 4, RRT 1.53 (Week 4, 60 C.): <0.1 Area %
- Area % (215 nm), peak monohydrate, RRT 1.00 (Week 4, 60 C.): 99.90 Area %
- Total Impurities, Area % (215 nm) (Week 4, 60 C.): <0.1 Area %
- Area % (215 nm), peak 2, RRT 1.09 (Week 8, 25/60): <0.1 Area %
- Area % (215 nm), peak 3, RRT 1.25 (Week 8, 25/60): <0.1 Area %
- Area % (215 nm), peak 4, RRT 1.53 (Week 8, 25/60): <0.1 Area %
- Area % (215 nm), peak monohydrate, RRT 1.00 (Week 8, 25/60): 99.97 Area %
- Total Impurities, Area % (215 nm) (Week 8, 25/60): <0.1 Area %
- Area % (215 nm), peak 2, RRT 1.09 (Week 8, 40/75): <0.1 Area %
- Area % (215 nm), peak 3, RRT 1.25 (Week 8, 40/75): <0.1 Area %
- Area % (215 nm), peak 4, RRT 1.53 (Week 8, 40/75): <0.1 Area %
- Area % (215 nm), peak monohydrate, RRT 1.00 (Week 8, 40/75): 99.92 Area %
- Total Impurities, Area % (215 nm) (Week 8, 40/75): <0.1 Area %
- Area % (215 nm), peak 2, RRT 1.09 (Week 8, 60 C.): <0.1 Area %
- Area % (215 nm), peak 3, RRT 1.25 (Week 8, 60 C.): <0.1 Area %
- Area % (215 nm), peak 4, RRT 1.53 (Week 8, 60 C.): <0.1 Area %
- Area % (215 nm), peak monohydrate, RRT 1.00 (Week 8, 60 C.): 99.97 Area %
- Total Impurities, Area % (215 nm) (Week 8, 60 C.): <0.1 Area %
- Area % (215 nm), peak 2, RRT 1.09 (Week 12, 25/60): <0.1 Area %
- Area % (215 nm), peak 3, RRT 1.25 (Week 12, 25/60): <0.1 Area %
- Area % (215 nm), peak 4, RRT 1.53 (Week 12, 25/60): <0.1 Area %
- Area % (215 nm), peak monohydrate, RRT 1.00 (Week 12, 25/60): 100.0 Area %
- Total Impurities, Area % (215 nm) (Week 12, 25/60): <0.1 Area %
- Area % (215 nm), peak 2, RRT 1.09 (Week 12, 40/75): <0.1 Area %
- Area % (215 nm), peak 3, RRT 1.25 (Week 12, 40/75): <0.1 Area %
- Area % (215 nm), peak 4, RRT 1.53 (Week 12, 40/75): <0.1 Area %
- Area % (215 nm), peak monohydrate, RRT 1.00 (Week 12, 40/75): 100.0 Area %
- Total Impurities, Area % (215 nm) (Week 12, 40/75): <0.1 Area %
- Area % (215 nm), peak 2, RRT 1.09 (Week 12, −20 C.): <0.1 Area %
- Area % (215 nm), peak 3, RRT 1.25 (Week 12, −20 C.): <0.1 Area %
- Area % (215 nm), peak 4, RRT 1.53 (Week 12, −20 C.): <0.1 Area %
- Area % (215 nm), peak monohydrate, RRT 1.00 (Week 12, −20 C.): 100.0 Area %
- Total Impurities, Area % (215 nm) (Week 12, −20 C.): <0.1 Area %
- physical form (over 12 weeks at 25° C. and 60% relative humidity or at 40° C. and 75% relative humidity): remains in substantially the same physical form
